Calls of active or inactive are those of the source. The calls are words filed in the database; no cut-off is given here.
Tests used:
[1] = target: Alpha-synuclein (Homo sapiens) (UniProt P37840); assay: Binding affinity to human alpha-synuclein expressed in Escherichia coli BL21(DE3) assessed as compound-protein complex formation at ratio of 1:1 incubated at compound:protein ratio of 10:1 for 3 hrs by ESI-MS spectrum analysis
[2] = Cytotoxicity against preformed fibrils-treated mouse TH-positive dopaminergic neurons at 0.1 to 10 uM incubated for 7 days by immunostaining analysis; format: toxicity, cell-based; conditions: neuron, 168 h, dose 0.1-10 µM, time 7 day

Activity [1]: Active
Compound: CN(C)C(=N)NCCS(=O)(=O)O
Activity [2]: Non-Toxic
